Assay results published in publication PMC8710297, “Identification of potent SENP1 inhibitors that inactivate SENP1/JAK2/STAT signaling pathway and overcome platinum drug resistance in ovarian cancer” (Clinical and Translational Medicine, 2021).

Molecular target: T1, SENP1 (Homo sapiens, UniProt Q9P0U3)
T1 sequence (Q9P0U3 1-644): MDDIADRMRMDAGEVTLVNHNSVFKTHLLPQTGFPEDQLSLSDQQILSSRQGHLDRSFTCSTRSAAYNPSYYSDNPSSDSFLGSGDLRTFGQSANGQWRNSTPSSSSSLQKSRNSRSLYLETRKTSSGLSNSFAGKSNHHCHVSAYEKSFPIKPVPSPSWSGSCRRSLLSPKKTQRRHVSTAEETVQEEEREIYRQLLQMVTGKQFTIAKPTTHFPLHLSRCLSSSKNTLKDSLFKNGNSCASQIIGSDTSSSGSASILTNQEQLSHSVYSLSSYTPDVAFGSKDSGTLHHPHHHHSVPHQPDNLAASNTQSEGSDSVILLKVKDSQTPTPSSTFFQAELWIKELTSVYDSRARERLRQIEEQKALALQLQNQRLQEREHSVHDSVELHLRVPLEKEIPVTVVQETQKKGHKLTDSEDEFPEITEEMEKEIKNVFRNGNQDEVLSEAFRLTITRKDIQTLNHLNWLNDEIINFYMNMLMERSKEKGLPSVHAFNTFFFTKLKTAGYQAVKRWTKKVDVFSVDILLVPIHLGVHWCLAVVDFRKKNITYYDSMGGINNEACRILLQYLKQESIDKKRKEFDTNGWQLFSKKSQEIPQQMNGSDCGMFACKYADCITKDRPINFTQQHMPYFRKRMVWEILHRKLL
Assay: In vitro (cell-free) thermal shift assay
Assay type: binding
Parameters: made in house
Details: purified SENP1, 4 h, higher temperatures
Description: FIGURE 2 UA directly interacts with Sentrin‐specific protease 1 (SENP1). (A) Cellular thermal shift assay to examine the interaction of UA with SENP1. IGROV1 CR cells pretreated with MG132 (10 μM, 1 h) were incubated with DMSO or UA for 4 h before being shifted to indicated temperatures. SENP1 stability was analyzed by using Western blot against SENP1 antibody. Right panel, quantification of non‐denatured SENP1 fraction shown in the left panel. (B) Cell‐free thermal shift assay to examine interactions of UA with SENP1. Purified SENP1 proteins were incubated with DMSO or UA for 4 h before being shifted to the indicated temperatures. SENP1 stability was analyzed by using Western blot against SENP1 antibody. Right panel, quantification of non‐denatured SENP1 fraction shown in the left panel. (C) The predicted docking pose of UA (C: green; H: white; O: red) at the hydrophobic catalytic cleft of SENP1 (C: salmon; H: white; O: red; N: blue). Key amino acid residues were highlighted. […] Stability of SENP1(C603A) was analyzed by using Western blot against SENP1 antibody. […] Left; Ultra‐high performance liquid‐chromatography‐MS/MS analyses of associated UA in indicated samples, right; quantification of data shown in left (the binding affinity of UA with SENP1‐C603A was normalized as 1). […]
The qu anti ficatio n of immunohistochemical sta in ing wa s scored blindly at lea st by two independent obser vers. […]

- thermal stabilization of recombinant SENP1 in vitro: stabilized
SMILES: C[C@H]1[C@H](C)CC[C@]2(C(=O)O)CC[C@]3(C)C(=CC[C@@H]4[C@@]5(C)CC[C@H](O)C(C)(C)[C@@H]5CC[C@]43C)[C@H]12 [UA, ursolic acid, reference compound]
